The text below walks through data of patent US11001557B2 (priority 2017, dated 2021).

Read-outs that look alike come from different tables or passages of the source. Some results are limits rather than exact numbers.

One data set has as its system Vero cells. As to conditions: African green monkey.
Data set [1] concerns SFTSV. As to the kind of experiment: microbe, parasite or virus in culture. The format is cell-based, severe fever with thrombocytopenia syndrome virus (SFTSV). As to conditions: for EC50: Severe fever with thrombocytopenia syndrome virus, Vero, 72 h.
A further data set is described as follows: in vitro. The conditions noted are these: African green monkey.
The subject of data set [2] is SFTSV. The conditions noted are these: cited from earlier work.
Where [3] appears, read: read-out: EC50: 50% effective concentration (concentration of a drug suppressing SFTSV proliferation by 50%).

The compound `CCN(CC)Cc1cc(Nc2ccnc3cc(Cl)ccc23)ccc1O` [Compound 1, Amodiaquine, reference compound] yielded a CC50 in the data set on Vero cells of more than 100 µM. In the data set on SFTSV [1], the “anti-SFTSV effect (in words)” value is recorded as “have an anti-SFTSV effect”. Moreover, the EC50 in the data set with SFTSV [1] (setting [3]) was found to be 19.1 ± 5.1 µM.

As to `CCN(CC)Cc1cc(Nc2ccnc3cc(F)ccc23)ccc1O` [Compound 2, 4-(7-fluoroquinolin-4-ylamino)-2-diethylaminomethylphenol], the CC50 in the data set with Vero cells was more than 100 µM. Further, the EC50 in the data set with SFTSV [1] (setting [3]) came out at 36.6 ± 9.3 µM.

The compound `CCN(CC)Cc1cc(Nc2ccnc3cc(Br)ccc23)ccc1O` [Compound 3, 4-(7-bromoquinolin-4-ylamino)-2-diethylaminomethylphenol] came in with a melting point of 194.3 to 195.8 °C. Also, the CC50 in the data set with Vero cells was more than 100 µM. The EC50 with SFTSV [1] (setting [3]) worked out at 31.1 ± 16.8 µM.

In turn, `CCN(CC)Cc1cc(Nc2ccnc3cc(I)ccc23)ccc1O` [Compound 4, 4-(7-iodoquinolin-4-ylamino)-2-diethylaminomethylphenol] had a melting point of 189.7 to 190.4 °C. For the same compound, in the data set on Vero cells, the CC50 was more than 100 µM. In addition, in the data set with SFTSV [1] (setting [3]), the EC50 came to 15.6 ± 4.9 µM.

As to `Oc1ccc(Nc2ccnc3cc(Cl)ccc23)cc1CN1CCCC1` [Compound 5, 4-(7-chloroquinolin-4-ylamino)-2-(1-pyrrolidinylmethyl)phenol], the EC50 with SFTSV [1] (setting [3]) worked out at 14.6 µM. The same compound came in with a CC50 in “in vitro” of 41.1 µM.

`CCCN(CCC)Cc1cc(Nc2ccnc3cc(Cl)ccc23)ccc1O` [Compound 6, 4-(7-chloroquinolin-4-ylamino)-2-dipropylaminomethylphenol]: the melting point was in the range of 163.2 to 164.3 °C. The EC50 with SFTSV [1] (setting [3]) was determined as 58.7 µM. In addition, the CC50 in the data set “in vitro” was more than 100 µM.

`CCCCN(C)Cc1cc(Nc2ccnc3cc(I)ccc23)ccc1O` [Compound 12, 4-(7-iodoquinolin-4-ylamino)-2-butylmethylaminomethylphenol] came in with an EC50 in the data set with SFTSV [1] of 6.2 µM. For the same compound, the CC50 in the data set “in vitro” is more than 50 µM.

In the data set with SFTSV [1], `CCCCCN(C)Cc1cc(Nc2ccnc3cc(I)ccc23)ccc1O` [Compound 13, 4-(7-iodoquinolin-4-ylamino)-2-methylpentylaminomethylphenol] yielded an EC50 of 3.4 µM. This compound also yielded a CC50 in the data set “in vitro” of more than 50 µM.

On to `CCCCCCN(C)Cc1cc(Nc2ccnc3cc(I)ccc23)ccc1O` [Compound 14, 4-(7-iodoquinolin-4-ylamino)-2-hexylmethylaminomethylphenol], for which the EC50 in the data set on SFTSV [1] came out at 8.7 µM. The CC50 in the data set “in vitro” is more than 50 µM.

As to `NC(=O)c1nc(F)c[nH]c1=O` [favipiravir, reference compound], the “anti-SFTSV effect (in words)” value in the data set on SFTSV [1] is on record as “have an anti-SFTSV effect”. In addition, the “anti-SFTSV effect already reported” value with SFTSV [2] was “already reported to have an anti-SFTSV effect”.

For the compound `NC(=O)c1ncn([C@@H]2O[C@H](CO)[C@@H](O)[C@H]2O)n1` [ribavirin, reference compound], the “anti-SFTSV effect (in words)” value in the data set with SFTSV [1] is listed as “have an anti-SFTSV effect”. Moreover, in the data set on SFTSV [2], the “anti-SFTSV effect already reported” value is reported as “already reported to have an anti-SFTSV effect”.

What is called melting point is the temperature of the solid-liquid transition.
